In patent US20220313629A1, “TRANSIENT POTENTIAL MELASTATIN 8 (TRPM8) ANTAGONISTS AND RELATED METHODS” (MARSHALL UNIVERSITY RESEARCH CORPORATION, priority 2019, published 2022):
Read-outs that look alike come from different tables or passages of the source. One block for each compound: values may come before it.

Legend:
Assay type in all cases: cell-based
[1] = biological target: TRPM8 (Homo sapiens, UniProt Q7Z2W7); test: TRPM8 antagonist activity by Fura-2 Ca2+ imaging in HEK-293 cells stably expressing human TRPM8; conditions: for IC50: read-out: Functional Activity hTRPM8 potency IC50 ± SEM
[2] = biological target: human TRPV1 (Homo sapiens, UniProt Q8NER1); test: TRPV1 agonist and antagonist Ca2+ flux assay (FLIPR, Fluo-8) in HEK293 cells stably expressing human TRPV1; conditions: for effect on hTRPV1-mediated responses (intrinsic and antagonist activity): at concentrations 13- to 25-fold higher than hTRPM8 IC50; for hTRPV1 % Activation (n = 3): normalized to Emax of capsaicin (3 μM)
[3] = biological target: human TRPA1 (Homo sapiens, UniProt O75762); test: TRPA1 agonist and antagonist Ca2+ flux assay (FLIPR, Fluo-8) in HEK293 cells stably expressing human TRPA1; conditions: for effect on hTRPA1-mediated responses (intrinsic and antagonist activity): at concentrations 13- to 25-fold higher than hTRPM8 IC50; for hTRPA1 % Activation (n = 3-5): normalized to Emax of AITC (300 μM)
[4] = inhibition of icilin (500 nM)-evoked Ca2+ entry, HEK-293 cells stably expressing hTRPM8, mean ± SEM, three independent experiments
[5] = HEK293, read-out: hTRPV1 % Inhibition (n = 3)
[6] = HEK293, read-out: hTRPA1 % Inhibition (n = 3)
[7] = HEK293, read-out: % Activation Mean ± SEM (n = 5), TRPV1 antagonist data (Percentage Inhibition Normalized to EC80 Control)

Sequence of human TRPA1 (O75762 whole entry): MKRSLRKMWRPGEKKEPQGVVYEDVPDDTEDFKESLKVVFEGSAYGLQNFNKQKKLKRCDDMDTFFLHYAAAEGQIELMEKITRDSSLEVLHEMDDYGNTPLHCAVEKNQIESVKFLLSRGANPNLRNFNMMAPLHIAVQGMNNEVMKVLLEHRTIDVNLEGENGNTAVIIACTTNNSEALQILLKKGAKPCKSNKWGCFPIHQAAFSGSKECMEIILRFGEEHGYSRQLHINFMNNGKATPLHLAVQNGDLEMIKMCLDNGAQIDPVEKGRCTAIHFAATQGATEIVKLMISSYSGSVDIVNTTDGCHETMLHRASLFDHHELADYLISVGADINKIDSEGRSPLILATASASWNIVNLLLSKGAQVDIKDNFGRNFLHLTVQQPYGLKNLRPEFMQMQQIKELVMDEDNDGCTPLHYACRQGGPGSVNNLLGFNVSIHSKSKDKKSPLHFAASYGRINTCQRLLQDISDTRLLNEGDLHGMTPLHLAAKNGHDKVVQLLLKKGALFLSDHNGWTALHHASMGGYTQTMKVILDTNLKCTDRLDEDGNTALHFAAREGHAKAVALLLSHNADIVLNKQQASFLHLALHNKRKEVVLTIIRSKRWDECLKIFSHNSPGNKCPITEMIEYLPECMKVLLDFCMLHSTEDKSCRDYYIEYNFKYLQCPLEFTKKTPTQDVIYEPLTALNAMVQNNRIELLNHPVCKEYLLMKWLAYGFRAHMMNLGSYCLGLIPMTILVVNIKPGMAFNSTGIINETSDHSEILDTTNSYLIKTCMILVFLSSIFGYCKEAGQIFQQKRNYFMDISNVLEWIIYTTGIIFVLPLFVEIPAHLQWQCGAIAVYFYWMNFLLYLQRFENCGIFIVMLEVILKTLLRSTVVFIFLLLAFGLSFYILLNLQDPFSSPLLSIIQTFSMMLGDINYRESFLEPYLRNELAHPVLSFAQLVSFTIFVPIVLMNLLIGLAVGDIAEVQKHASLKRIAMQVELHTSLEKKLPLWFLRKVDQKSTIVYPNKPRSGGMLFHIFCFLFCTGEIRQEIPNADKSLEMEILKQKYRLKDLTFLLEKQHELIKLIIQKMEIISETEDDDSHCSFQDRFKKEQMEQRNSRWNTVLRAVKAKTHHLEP
Sequence of TRPM8 (Q7Z2W7 whole entry): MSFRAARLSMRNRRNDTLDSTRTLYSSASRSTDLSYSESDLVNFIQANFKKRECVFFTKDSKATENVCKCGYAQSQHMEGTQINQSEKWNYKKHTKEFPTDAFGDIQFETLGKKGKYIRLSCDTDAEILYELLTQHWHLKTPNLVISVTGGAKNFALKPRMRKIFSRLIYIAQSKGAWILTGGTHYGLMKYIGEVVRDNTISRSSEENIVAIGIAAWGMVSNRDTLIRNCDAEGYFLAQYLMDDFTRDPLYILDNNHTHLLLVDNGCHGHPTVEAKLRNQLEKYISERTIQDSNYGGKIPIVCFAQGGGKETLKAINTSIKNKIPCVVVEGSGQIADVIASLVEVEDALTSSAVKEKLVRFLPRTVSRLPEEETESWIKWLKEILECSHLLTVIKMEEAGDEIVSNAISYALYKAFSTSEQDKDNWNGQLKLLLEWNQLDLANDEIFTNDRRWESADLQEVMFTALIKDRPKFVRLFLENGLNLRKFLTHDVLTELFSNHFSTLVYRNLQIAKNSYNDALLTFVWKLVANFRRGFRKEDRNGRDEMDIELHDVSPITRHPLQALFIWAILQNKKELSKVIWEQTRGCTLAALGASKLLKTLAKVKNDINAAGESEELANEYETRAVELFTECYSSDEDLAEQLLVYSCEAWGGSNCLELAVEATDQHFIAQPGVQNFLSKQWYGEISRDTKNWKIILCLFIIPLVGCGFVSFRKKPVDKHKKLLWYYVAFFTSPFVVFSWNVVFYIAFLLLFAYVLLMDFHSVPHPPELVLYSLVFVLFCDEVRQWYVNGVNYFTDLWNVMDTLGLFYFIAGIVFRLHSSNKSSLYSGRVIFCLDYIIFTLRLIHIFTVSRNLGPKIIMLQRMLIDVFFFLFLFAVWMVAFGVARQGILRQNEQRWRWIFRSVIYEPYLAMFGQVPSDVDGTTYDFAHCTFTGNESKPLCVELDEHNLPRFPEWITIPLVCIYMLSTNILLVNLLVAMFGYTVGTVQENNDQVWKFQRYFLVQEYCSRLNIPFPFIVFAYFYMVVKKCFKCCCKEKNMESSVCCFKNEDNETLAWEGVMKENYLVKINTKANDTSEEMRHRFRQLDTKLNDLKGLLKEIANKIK
Sequence of human TRPV1 (Q8NER1 whole entry): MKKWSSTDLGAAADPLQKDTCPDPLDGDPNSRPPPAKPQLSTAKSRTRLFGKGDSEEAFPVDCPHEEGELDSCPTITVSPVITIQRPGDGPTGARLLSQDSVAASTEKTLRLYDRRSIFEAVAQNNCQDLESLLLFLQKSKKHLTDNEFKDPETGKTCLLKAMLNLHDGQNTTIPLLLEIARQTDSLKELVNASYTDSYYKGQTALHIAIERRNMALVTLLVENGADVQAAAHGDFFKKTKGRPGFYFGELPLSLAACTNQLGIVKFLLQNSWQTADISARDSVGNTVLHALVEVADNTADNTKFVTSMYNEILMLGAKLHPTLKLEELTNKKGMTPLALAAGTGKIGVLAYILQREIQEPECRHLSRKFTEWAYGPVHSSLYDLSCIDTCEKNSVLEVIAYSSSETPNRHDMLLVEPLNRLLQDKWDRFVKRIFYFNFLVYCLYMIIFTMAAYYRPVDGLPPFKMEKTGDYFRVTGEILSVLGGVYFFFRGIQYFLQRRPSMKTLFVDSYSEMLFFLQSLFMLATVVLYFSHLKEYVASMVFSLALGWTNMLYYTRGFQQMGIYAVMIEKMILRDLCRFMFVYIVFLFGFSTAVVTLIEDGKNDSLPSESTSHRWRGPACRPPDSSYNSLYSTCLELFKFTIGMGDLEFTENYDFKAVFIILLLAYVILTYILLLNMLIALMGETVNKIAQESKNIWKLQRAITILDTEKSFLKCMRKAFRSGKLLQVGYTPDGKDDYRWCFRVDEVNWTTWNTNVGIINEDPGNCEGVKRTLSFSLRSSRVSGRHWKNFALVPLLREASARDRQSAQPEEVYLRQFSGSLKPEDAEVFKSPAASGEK

increase of hTRPM8 activity relative to Compound 1 ([1]; icilin Ca2+ assay): 30 fold | IC50 [1, 4]: 468 ± 1 nM
Compound: CC1CCC(C(C)C)C(NC(=O)c2ccc(-c3ccccc3)cc2)C1 (mixture of isomers) [Compound 2, N-(2-isopropyl-5-methylcyclohexyl)-[1,1′-biphenyl]-4-carboxamide]

IC50 [1, 4]: 21000 ± 1000 nM
Compound: O=C(NC1CCCC2CCCCC21)c1ccc(-c2ccccc2)cc1 (mixture of isomers) [Compound 8, N-(decahydronaphthalen-1-yl)-[1,1′-biphenyl]-4-carboxamide]

Compound: O=C(NC1CCC2CCCCC2C1)c1ccc(-c2ccccc2)cc1 (mixture of isomers) [Compound 10, N-(decahydronaphthalen-2-yl)-[1,1′-biphenyl]-4-carboxamide]
inhibition at 0.01 µM [2, 5]: -13 ± 4% | inhibition at 0.1 µM [2, 5]: 2 ± 3% | effect on hTRPV1-mediated responses (intrinsic and antagonist activity) [2]: does not activate or inhibit | hTRPV1 % Activation (n = 3) ([2]; tested at 10 nM): 2.4 ± 0.8% | hTRPV1 % Activation (n = 3) ([2]; tested at 100 nM): 2.3 ± 0.9% | inhibition at 0.01 µM [3, 6]: -8 ± 3% | inhibition at 0.1 µM [3, 6]: -1 ± 10% | effect on hTRPA1-mediated responses (intrinsic and antagonist activity) [3]: does not activate or inhibit | hTRPA1 % Activation (n = 3-5) ([3]; tested at 10 nM): 0.2 ± 0.4% | hTRPA1 % Activation (n = 3-5) ([3]; tested at 100 nM): −1.1 ± 0.2% | enhancement of TRPM8 potency relative to Compound 8 ([1]; icilin Ca2+ assay): 3,500 fold | higher potency than Compound 5 and Compound 7 ([1]; icilin Ca2+ assay): 10 fold | IC50 [1, 4]: 6 ± 1 nM | IC50 [1]: ≤ 10 nM

Compound: O=C(NC1CCC2CCCCC2C1)c1ccc(-c2ccccc2)cc1 (racemic) [Compound 12, N-((2SR,9RS,10SR)-decahydronaphthalen-2-yl)-[1,1′-biphenyl]-4-carboxamide]
inhibition at 0.003 µM [2, 5]: -12 ± 3% | inhibition at 0.03 µM [2, 5]: 1 ± 2% | effect on hTRPV1-mediated responses (intrinsic and antagonist activity) [2]: do not affect | hTRPV1 % Activation (n = 3) ([2]; tested at 3 nM): 2 ± 1% | hTRPV1 % Activation (n = 3) ([2]; tested at 30 nM): 3 ± 1% | inhibition at 0.003 µM [3, 6]: -0.3 ± 3% | inhibition at 0.03 µM [3, 6]: 5 ± 9% | effect on hTRPA1-mediated responses (intrinsic and antagonist activity) [3]: do not affect | hTRPA1 % Activation (n = 3-5) ([3]; tested at 3 nM): −2.3 ± 1.0% | hTRPA1 % Activation (n = 3-5) ([3]; tested at 30 nM): −2.1 ± 0.5%

IC50 [1]: 7100 ± 900 nM
Compound: O=C(NC1CC2CCC1C2)c1ccc(-c2ccccc2)cc1 (single isomer, unassigned) [Compound 4, N-(bicyclo[2.2.1]heptan-2-yl)-[1,1′-biphenyl]-4-carboxamide]

Compound: C=CCN=C=S [AITC, Allyl isothiocyanate, reference compound]
% Activation Mean ± SEM (n = 5), TRPA1 agonist data ([3]; 100 nM, normalized to Emax of AITC): −0.8 ± 0.4% | % Activation Mean ± SEM (n = 5), TRPA1 agonist data ([3]; 300 nM, normalized to Emax of AITC): −0.5 ± 0.2% | % Activation Mean ± SEM (n = 5), TRPA1 agonist data ([3]; 1,000 nM, normalized to Emax of AITC): −0.5 ± 0.2% | % Activation Mean ± SEM (n = 5), TRPA1 agonist data ([3]; 3,000 nM, normalized to Emax of AITC): −1.2 ± 0.2% | % Activation Mean ± SEM (n = 5), TRPA1 agonist data ([3]; 10,000 nM, normalized to Emax of AITC): 68.8 ± 2.9% | % Activation Mean ± SEM (n = 5), TRPA1 agonist data ([3]; 30,000 nM, normalized to Emax of AITC): 78.5 ± 1.0% | % Activation Mean ± SEM (n = 5), TRPA1 agonist data ([3]; 100,000 nM, normalized to Emax of AITC): 94.2 ± 2.4% | % Activation Mean ± SEM, TRPA1 agonist data ([3]; 300,000 nM, normalized to Emax of AITC, n = 10): 100.0 ± 1.3 %

Compound: COc1cc(CNC(=O)CCCC/C=C/C(C)C)ccc1O [Capsaicin, reference compound]
% Activation Mean ± SEM (n = 5), TRPV1 agonist data ([2]; 1 nM, normalized to Emax of capsaicin): −0.2 ± 1.0% | % Activation Mean ± SEM (n = 5), TRPV1 agonist data ([2]; 3 nM, normalized to Emax of capsaicin): −1.7 ± 0.7% | % Activation Mean ± SEM (n = 5), TRPV1 agonist data ([2]; 10 nM, normalized to Emax of capsaicin): 15.2 ± 0.6% | % Activation Mean ± SEM (n = 5), TRPV1 agonist data ([2]; 30 nM, normalized to Emax of capsaicin): 72.4 ± 2.3% | % Activation Mean ± SEM (n = 5), TRPV1 agonist data ([2]; 100 nM, normalized to Emax of capsaicin): 81.4 ± 3.3% | % Activation Mean ± SEM (n = 5), TRPV1 agonist data ([2]; 300 nM, normalized to Emax of capsaicin): 91.8 ± 3.7% | % Activation Mean ± SEM (n = 5), TRPV1 agonist data ([2]; 1,000 nM, normalized to Emax of capsaicin): 101.6 ± 2.0% | % Activation Mean ± SEM, TRPV1 agonist data ([2]; 3,000 nM, normalized to Emax of capsaicin, n = 10): 100.0 ± 1.8 % | % Activation, EC80 agonist control of the TRPV1 antagonist assay ([2]; Capsaicin EC80, 100 nM, normalization control): 100%

inhibition at 0.003 µM [2, 7]: 1.6 ± 4.2% | inhibition at 0.01 µM [2, 7]: 0.1 ± 1.3% | inhibition at 0.03 µM [2, 7]: 1.1 ± 1.7% | inhibition at 0.1 µM [2, 7]: 7.1 ± 2.2% | inhibition at 0.3 µM [2, 7]: 23.4 ± 2.5% | inhibition at 1 µM [2, 7]: 94.2 ± 1.1% | inhibition at 3 µM [2, 7]: 100.6 ± 0.3% | inhibition at 10 µM [2, 7]: 101.2 ± 0.5% | IC50 ([2]; capsaicin 100 nM, read-out: IC50, blockade of capsaicin-activated hTRPV1 responses): 451 ± 48 nM
Compound: Oc1cc2c(cc1O)CN(C(=S)NCCc1ccc(Cl)cc1)CCC2 [Capsazepine, reference compound]
